The source of these data is US10576078B2 (Council of Scientific & Industrial Research, priority 2017, dated 2020).

Common to all, as to format: cell-based, Human
Assay [1] concerns stat5. The assay can be described thus: Immunoblotting of stat5 expression and phosphorylation in K562 cells. How it is done: K562 cells were treated as indicated for 72 h and stat5 expression was assessed by immunoblotting. Pioglitazone (Pio) was used as a positive control. Data is one representative of 3 independent experiments.
(§1) K562 cells were treated as indicated for 30 min and stat5 phosphorylation at Y694 or CrkL phosphorylation at Y207 were assessed by immunoblotting. Total stat5 or β-actin expression was assessed to ensure equal loading. Pio was used as a negative control and IMT was used as a positive control. Data is one representative of 3 independent experiments.
(§2) K562 cells were cultured in 6 well plates and treated as indicated in figures or descriptions of FIG. 1E, FIG. 1G and FIG. 2D-E. Cells were then homogenized in lysis buffer containing 50 mM Tris-HCl, pH 7.5, 150 mM NaCl, 1% NP40, 5 mM EDTA, 1 mM DTT, protease and phosphatase inhibitor cocktails (Sigma) and incubated on ice for 30 min followed by 5 cycles of freeze-thaw. Samples were then centrifuged at 14000 rpm at 4° C. for 30 min. Supernatants were then quantified by Bichinchonic acid (Sigma)-based protein estimation. Equal amount of proteins were solubilized in Laemmli buffer, and were resolved by 10%-12% SDS PAGE and transferred onto PVDF membranes (Millipore; Billerica, Mass.). […] Immunoreactivity was detected using a chemiluminescent HRP Substrate (Millipore) in a LAS 4010 Chemi-doc Imager (GE Healthcare, Little Chalfont, UK). […]
(In general: Immunoblotting shows a protein as a band on a membrane.)

For assay [2], the system named is CrkL. Briefly: Immunoblotting of CrkL phosphorylation in K562 cells. As to conditions: 30 min, Y207. On the procedure:
as §1
as §2, with “Mass.). Membranes were blocked in 5% (w/v) non-fat dried milk powder (Sigma) in PBS containing 0.2% Tween 20 (Sigma).” for “Mass.).”

Assay [3] deals with K562 cells. Briefly: Western blotting of apoptosis proteins in K562 cells. On the procedure:
PARP cleavage in K562 cells was assessed by western blotting. One representative of three independent experiments is shown.
The expression of indicated proteins was determined by immunoblotting in K562 cells following indicated treatments. One representative of three independent experiments is shown.
K562 cells were cultured in 6 well plates and treated as indicated in figures or descriptions of FIG. 1E, FIG. 1G and FIG. 2D-E. Cells were then homogenized in lysis buffer containing 50 mM Tris-HCl, pH 7.5, 150 mM NaCl, 1% NP40, 5 mM EDTA, 1 mM DTT, protease and phosphatase inhibitor cocktails (Sigma) and incubated on ice for 30 min followed by 5 cycles of freeze-thaw. Samples were then centrifuged at 14000 rpm at 4° C. for 30 min. Supernatants were then quantified by Bichinchonic acid (Sigma)-based protein estimation. Equal amount of proteins were solubilized in Laemmli buffer, and were resolved by 10%-12% SDS PAGE and transferred onto PVDF membranes (Millipore; Billerica, Mass.). Membranes were blocked in 5% (w/v) non-fat dried milk powder (Sigma) in PBS containing 0.2% Tween 20 (Sigma). The membranes were then sequentially incubated with primary and secondary antibodies in PBS containing 0.2% Tween 20 and 2.5% BSA (with 3 washes in between). Immunoreactivity was detected using a chemiluminescent HRP Substrate (Millipore) in a LAS 4010 Chemi-doc Imager (GE Healthcare, Little Chalfont, UK). Antibodies used: phospho-STAT5, STAT5, cleaved PARP and caspases-3, -8, -9, pCrkL, Bcl2 and Bax antibodies were from Cell Signaling Technology (Boston, Mass.). Mouse monoclonal anti-β-Actin-Peroxidase and horse raddish peroxidase-conjugated secondary antibodies were from Sigma-Aldrich. For immunoblotting all primary antibodies were used in 1:1000 dilutions except β-actin (1:50000). Secondary antibodies were used at 1:10000 dilutions.

Assay [4] has as its system K562 cells. The assay can be described thus: Apoptosis by annexin V/PI staining and flow cytometry in K562 cells. To be noted: 48 h. On the procedure: K562 cells were treated with CFZ for 48 h and apoptosis was analyzed by annexin V and propidium iodide (PI) staining followed by flow-cytometry (FACSCalibur, BD biosciences). (C) Mean±SEM of three independent experiments are plotted. (D) Representative dot plot.

Assay [5] has as its system K562 cells. The assay can be described thus: Megakaryocytic differentiation in K562 cells (May-Grünwald-Giemsa staining, CD61/CD41 flow cytometry). On the procedure: K562 cells were treated with CFZ for 120 h and May-Grünwald-Giemsa staining followed by light microscopy was used to assess cellular morphology. […] PMA was used as appositive control. Representative photomicrographs from two independent experiments (8 fields per treatment group) are shown.
FIG. 3B-3C in particular show CFZ induces megakaryocytic surface markers CD61 (early) and CD41 (late) in K562 cells. K562 cells were treated as indicated for 72 h (Phorbol myristate acetate (PMA) was used as positive control) and then were stained with IgG isotype control or CD61 (B) & CD41 (C) IgG antibodies and were analyzed by flowcytometry (n=3). ***p<0.0001. PMA was used as a positive control.
May-Grünwald Giemsa Staining: To assess the changes in nuclear morphology, cells treated with vehicle (0.1% DMSO), CFZ (indicated concentrations in FIG. 3A) or PMA (positive control; 10 ng/ml) for 120 h (FIG. 3A). Cells were then washed with phosphate buffer saline (PBS) and were attached to glass slides by cytospin. These slides were stained with Giemsa and May-Grünwald solution (Sigma) as per manufacturer's instruction. Cells were then visualized by microscopy.
Differentiation analyses by flow cytometry: K562 (FIG. 3B-C) or primary CP-CML cells (FIG. 3D-E) were treated with vehicle, CFZ and PMA as indicated in the respective figures and figure descriptions for 72 hrs. Cells were then harvested, washed, and centrifuged, resuspended in 100 μl PBS and were stained with CD41-FITC or CD61-PE antibodies for 30 min at room temperature (in dark). After incubation, the cells were washed and resuspended in 300 μl PBS and were analyzed on a FACSCalibur flow cytometer.
For orientation: Flow cytometry measures light scatter and fluorescence of single cells or particles in a stream.

The subject of assay [6] is CD34+ cells from imatinib-resistant patients (quiescent LSCs). Briefly: CFSE assay of quiescent LSCs.
Procedure: Cells were gated depending on CFSE intensity. […] Apoptosis in these cells was determined by annexin V staining.
For assessing apoptosis in quiescent LSCs, purified CD34^+ cells were first stained with carboxyfluorescein succinimidyl ester (CFSE; Invitrogen) for 30 min. Cells were then washed and resuspended in SFM medium with 5 growth factors and were kept at 37° C. overnight. Next day, cells were treated as indicated in SFM medium with growth factors and were maintained further for 4 days with supplementation of the drugs every 48 h (drug concentrations in FIG. 5 and its description). Cells were then harvested, washed, and were labeled with CD34-PE and Annexin-APC antibodies and then gated into non-dividing cells (CD34^+CFSE^bright) and dividing cell (CD34^+CFSE^dim) population based on CFSE fluorescence intensity. […] Number of cells or apoptosis was determined by flowcytometry.
The test system of assay [7] is aldehyde dehydrogenase (ALDH) activity in CP-CML cells. Briefly: Aldefluor assay of aldehyde dehydrogenase activity. As to conditions: imatinib-resistant CP-CML cells, n=6, 5 μM, 48 h. How it is done: CP-CML cells from imatinib-resistant patients (n=6) were treated with CFZ or salinomycin (5 μM; 48 h) and aldehyde dehydrogenase activity in these cells were assessed using an ALDEFLUOR kit (Stemcell technologies). ***p<0.0001.
CP-CML cells isolated from imatinib-resistant patients were treated with vehicle (V; 0.1% DMSO), CFZ or salinomycin (both 5 μM) for 48 h (FIG. 2C). Aldehyde dehydrogenase activity in CP-CML cells was assessed using an Aldefluor kit ([…] technologies) by flow cytometry (FACSCalibur).

Molecules are shown by their SMILES.

For the compound `CC(C)/N=c1\cc2n(-c3ccc(Cl)cc3)c3ccccc3nc-2cc1Nc1ccc(Cl)cc1` [CFZ, Clofazimine], the stat5 phosphorylation result in assay [1] (30 min, Y694) is recorded as “without altering”. Further, the stat5 protein expression entry in assay [1] (72 h, FIG. 2D) is recorded as “suppressed”. The CrkL phosphorylation result in assay [2] is recorded as “did not alter”. Besides, in assay [3], the Bax expression entry was “increased”, the Bcl-2 expression entry is on record as “decreased”, the caspase-3 activation result is “activated” and the caspase-9 activation result was “activated”. Also, the “cytochrome C release” value in assay [3] is recorded as “induced”. The “apoptosis as determined by PARP cleavage” value in assay [3] (western blotting) is reported as “induces apoptosis”. Besides, the “apoptosis by Annexin V staining” value in assay [4] is “concentration-dependently induces apoptosis”. In assay [5] (1 μM, 120 h, May-Grünwald-Giemsa staining), the megakaryocytic differentiation phenotype result was “induced”. Further, in assay [5] (72 h), the “megakaryocytic surface marker CD41” value is “increased” and the “megakaryocytic surface marker CD61” value is reported as “increased”. In addition, in assay [6] (96 h, annexin V), the “apoptosis in CFSE-bright cells” value is “robust apoptosis” and the “apoptosis in CFSE-dim cells” value is “robust apoptosis”. Further, in assay [6] (n=3, 96 h), the “CFSE-dim (dividing cell) population” value was “increased” and the “number of CFSE-bright (non-dividing) cells” value is recorded as “drastically reduced”. In addition, the “aldehyde dehydrogenase (ALDH) activity” value in assay [7] is on record as “remarkably decreased”.
